Laboratory results from patent US8470964B2, “Peptides derived from NCAM (FGLs)” (Enkam Pharmaceuticals A/S, priority 2007, dated 2013).
“Also recorded” adds a separate entry of the source. Where no end group is shown, it is not given here.

Columns and labels:
[1] = system: primary cerebellar granule rat cells (CGC); assay: Neurite outgrowth of cerebellar granule neurons; assay type: cell-based; conditions: CGC from 7-day old Wistar rats, 24 hrs; bell-shaped dose response
Method: FIG. 2. Effects of FGLs on neurite outgrowth of early postnatal rat cerebellar neurons. CGCs were prepared from 7-day old Wistar rats and plated on uncoated eight-well Lab-Tek® chamber The peptide was added to the medium immediately after plating, and cells were maintained at 37° C., 5% CO2 for 24 hrs. CGC cultures were fixed in 4% and then immunostained against rat GAP-43. Neurite outgrowth was determined by image analysis of 200±20 neurons in each individual experiment. The length of neuronal processes per cell was estimated stereologically. The results are given as mean values±SEM from at least three independent experiments and illustrated as percentage of control values. *p<0.05 when compared with control by paired t-test.
This study investigated the effect of FGLs on neurite outgrowth of dissociated primary cerebellar granule rat cells (CGC) cultured in vitro.
Efficacy is found over a range of concentrations corresponding to that of target (FGFR) activation and follows the same bell-shaped dose-response.

[2] = system: scopolamine induced social amnesia model in adult rats; assay: Scopolamine induced social amnesia model (SRT); assay type: in vivo, rat; conditions: 8 mg/kg s.c. twice, 19 hours interval
Method: FIG. 7. Effects of subcutaneous administration of FGLL FGLs, and VEB1 (2 administrations with a 19 hours interval, at 8 mg/kg) on the scopolamine induced social amnesia as evaluated in the Social Recognition Test (SRT). The rats were tested with the initial trial of SRT performed 5 h after the last administration of peptide/vehicle and 30 minutes after scopolamine (0.01 mg/kg s.c.) administration. The juvenile rat was presented twice with an inter-trial interval of 15 minutes.
A—Recognition ratios (RR) of rats treated with scopolamine and vehicle (Veh) or scopolamine and one of the three peptides as detailed above. Results are shown as Mean and SEM of recognition ratio (RR). […] Comparisons of RR values to a hypothetical value 0.50 were carried out using one-sample t-test. In each experimental group data were obtained from 10 rats.
B—Cumulative investigation time (T1, in seconds) during the first trial of the SRT of rats treated with scopolamine and vehicle (Veh) or scopolamine and one of the three peptides as detailed above. Results are shown as Mean and SEM of T1. Comparison between groups were carried out by ANOVA followed by Dunnett Multiple Comparison Test. In each experimental group data were obtained from 10 rats.
FGLs was tested for efficacy in the scopolamine induced social amnesia model in adult rats (Van Kampen et al., 2004). […]

[3] = system: (25-35) β-amyloid peptide fragment induced cognitive deficits model in rats; assay: (25-35) β-amyloid induced cognitive deficits, intranasal administration, SRT; assay type: in vivo, rat; conditions: 1.28 mg/kg intranasally daily, 15 doses day 7 to 21; SRT 22 days after β-amyloid injection
Text: FIG. 9. Effects of intranasal administration of FGLs on the β-amyloid neurotoxicity induced deficit on performance in the Social Recognition Test. Rats received an intranasal administration of FGLs at the stated doses or vehicle daily at days 7 to 21 after i.c.v. administration of the (25-35) β-amyloid (A-β) fragment. 8-10 animals per group. Results are expressed as Means and SEM of Recognition Ratio and analyzed by one-sample t-test: **p<0.05.
In this study, the (25-35) β-amyloid peptide fragment induced cognitive deficits model in rats was used to investigate the dose-response (0.08, 0.32 or 1.28 mg/kg) effect of FGLs administered intranasally daily for 15 doses from day 7 to day 21 post β-amyloid peptide i.c.v. injection. The social memory performance was evaluated using the SRT, 22 days after the β-amyloid injection. A statistically significant impairment of short-term memory was observed as a consequence of the (25-35) β-amyloid neurotoxicity in the rats receiving the (25-35) β-amyloid fragment plus vehicle.

[4] = Visual appearance of peptide diluted in water; assay type: physicochemical; conditions: 100 mg/ml in water, room temperature
Method: FIG. 11. Visual appearance of FGLL and FGLs. 100 mg of FGLL and FGLs, respectively were diluted in 1 ml water at room temperature for visual inspection.
FGFL and FGFs were diluted in water at a concentration of 100 mg/ml for visual inspection (FIG. 11). […] In another experiment were 5 mg of FGLL and FGLs respectively diluted in 1 ml water or PBS at room temperature. Light microscopy pictures of the water and PBS solutions of FGLL and FGLs can be seen in FIG. 12. In FIG. 13. is a 90° light-scattering spectra of 100 mg/ml FGFL and FGLs in water showing the difference in intensity between the FGF L and the FGLs, solution.

FGLs: two identical 11 amino acid peptides (VAENQQGKSKA), forming a dimer through a linker molecule (iminodiacetic acid); peptide amide (VAENQQGKSKA-NH2; not fully specified; also: dimer of two identical peptides through iminodiacetic acid linker, attachment site not given here)
concentration range with neurite outgrowth promoting activity [1]: 5 to 25 µg/mL | cumulative investigation time at the first encounter (T1) versus scopolamine and vehicle ([2]; scopolamine 0.01 mg/kg s.c.): significantly longer T1 than rats treated with vehicle; also recorded: significant difference in the cumulative investigation time at the first encounter | recognition ratio (RR) versus theoretical value 0.5 in scopolamine treated rats ([2]; test 5 h after last dose, 30 minutes after scopolamine 0.01 mg/kg s.c.): Significant effects against scopolamine induced social amnesia; also recorded: RR significantly different from the theoretical value of 0.5 | deficit in social memory performance (SRT) compared with vehicle treated rats [3]: significant (p<0.01) amelioration of the deficit | visual appearance of solution [4]: remained clear
